{"source": "patent US20240165199A1", "about": "“PROX1 PREVENTS MYXOMATOUS VALVE DISEASE BY INHIBITING PDGF-B SIGNALING” (Oklahoma Medical Research Foundation, priority 2022, published 2024)", "key": {"PDGFRβ": {"target": "PDGFRβ (Homo sapiens, UniProt P09619)", "sequence (P09619 33-1106)": "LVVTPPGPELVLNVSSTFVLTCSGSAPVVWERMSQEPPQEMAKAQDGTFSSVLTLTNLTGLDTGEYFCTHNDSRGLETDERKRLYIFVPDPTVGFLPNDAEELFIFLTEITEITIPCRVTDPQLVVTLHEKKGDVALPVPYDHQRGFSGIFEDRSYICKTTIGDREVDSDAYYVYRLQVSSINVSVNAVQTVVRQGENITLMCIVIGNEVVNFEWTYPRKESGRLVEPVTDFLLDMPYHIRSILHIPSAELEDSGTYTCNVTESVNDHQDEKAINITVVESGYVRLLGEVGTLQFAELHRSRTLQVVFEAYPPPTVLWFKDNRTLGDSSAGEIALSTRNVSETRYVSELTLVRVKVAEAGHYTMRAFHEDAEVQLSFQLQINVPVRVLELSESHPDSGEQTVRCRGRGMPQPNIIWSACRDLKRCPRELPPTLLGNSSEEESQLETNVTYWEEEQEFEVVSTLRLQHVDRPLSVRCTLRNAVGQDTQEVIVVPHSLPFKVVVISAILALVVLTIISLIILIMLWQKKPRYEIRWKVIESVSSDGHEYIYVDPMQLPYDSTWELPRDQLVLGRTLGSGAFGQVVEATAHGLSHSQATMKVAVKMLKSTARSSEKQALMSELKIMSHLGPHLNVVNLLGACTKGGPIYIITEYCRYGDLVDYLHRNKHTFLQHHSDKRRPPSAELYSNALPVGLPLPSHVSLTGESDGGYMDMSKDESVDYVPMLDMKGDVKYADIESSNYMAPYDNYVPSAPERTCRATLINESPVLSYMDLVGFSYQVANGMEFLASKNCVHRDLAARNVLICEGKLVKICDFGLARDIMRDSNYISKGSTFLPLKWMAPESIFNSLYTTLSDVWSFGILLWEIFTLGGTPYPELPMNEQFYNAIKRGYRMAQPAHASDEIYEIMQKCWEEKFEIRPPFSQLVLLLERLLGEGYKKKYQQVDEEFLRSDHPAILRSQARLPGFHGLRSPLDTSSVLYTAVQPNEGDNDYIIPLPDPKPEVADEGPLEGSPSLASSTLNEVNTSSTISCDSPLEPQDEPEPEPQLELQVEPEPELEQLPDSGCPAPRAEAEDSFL", "details": "not specific for PDGFRβ; cited from earlier work"}, "PDGFRα": {"target": "PDGFRα (Homo sapiens, UniProt P16234)", "sequence (P16234 24-1089, species assumed)": "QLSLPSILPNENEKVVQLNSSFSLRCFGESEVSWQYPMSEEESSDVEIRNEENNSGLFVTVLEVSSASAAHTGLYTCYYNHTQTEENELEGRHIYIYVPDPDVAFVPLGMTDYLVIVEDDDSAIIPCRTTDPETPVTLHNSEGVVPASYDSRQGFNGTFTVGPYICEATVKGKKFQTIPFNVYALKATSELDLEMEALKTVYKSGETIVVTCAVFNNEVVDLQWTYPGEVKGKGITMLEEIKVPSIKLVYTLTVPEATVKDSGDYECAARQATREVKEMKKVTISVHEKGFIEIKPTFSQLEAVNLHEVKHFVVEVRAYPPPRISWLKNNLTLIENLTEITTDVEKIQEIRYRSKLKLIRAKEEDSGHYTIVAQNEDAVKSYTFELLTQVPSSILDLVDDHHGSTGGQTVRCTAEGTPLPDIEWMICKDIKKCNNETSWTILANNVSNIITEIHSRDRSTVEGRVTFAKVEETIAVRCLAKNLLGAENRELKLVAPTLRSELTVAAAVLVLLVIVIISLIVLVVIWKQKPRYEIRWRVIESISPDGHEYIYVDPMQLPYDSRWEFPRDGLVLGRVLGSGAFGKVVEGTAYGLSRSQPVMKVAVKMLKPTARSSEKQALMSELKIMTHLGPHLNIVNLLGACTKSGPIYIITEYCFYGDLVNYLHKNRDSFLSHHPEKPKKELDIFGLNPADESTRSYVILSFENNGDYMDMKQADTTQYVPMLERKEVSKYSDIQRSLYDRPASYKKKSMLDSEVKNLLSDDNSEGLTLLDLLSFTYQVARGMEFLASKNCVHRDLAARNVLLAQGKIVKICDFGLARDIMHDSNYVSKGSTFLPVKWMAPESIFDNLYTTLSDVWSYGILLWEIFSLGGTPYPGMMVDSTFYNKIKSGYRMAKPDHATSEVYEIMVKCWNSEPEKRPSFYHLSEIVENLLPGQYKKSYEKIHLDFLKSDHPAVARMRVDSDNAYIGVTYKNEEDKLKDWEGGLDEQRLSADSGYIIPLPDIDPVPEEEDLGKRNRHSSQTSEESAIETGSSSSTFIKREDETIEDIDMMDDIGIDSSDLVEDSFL", "details": "cited from earlier work"}, "c-Kit": {"target": "c-Kit (Homo sapiens, UniProt P10721)", "sequence (P10721 26-976)": "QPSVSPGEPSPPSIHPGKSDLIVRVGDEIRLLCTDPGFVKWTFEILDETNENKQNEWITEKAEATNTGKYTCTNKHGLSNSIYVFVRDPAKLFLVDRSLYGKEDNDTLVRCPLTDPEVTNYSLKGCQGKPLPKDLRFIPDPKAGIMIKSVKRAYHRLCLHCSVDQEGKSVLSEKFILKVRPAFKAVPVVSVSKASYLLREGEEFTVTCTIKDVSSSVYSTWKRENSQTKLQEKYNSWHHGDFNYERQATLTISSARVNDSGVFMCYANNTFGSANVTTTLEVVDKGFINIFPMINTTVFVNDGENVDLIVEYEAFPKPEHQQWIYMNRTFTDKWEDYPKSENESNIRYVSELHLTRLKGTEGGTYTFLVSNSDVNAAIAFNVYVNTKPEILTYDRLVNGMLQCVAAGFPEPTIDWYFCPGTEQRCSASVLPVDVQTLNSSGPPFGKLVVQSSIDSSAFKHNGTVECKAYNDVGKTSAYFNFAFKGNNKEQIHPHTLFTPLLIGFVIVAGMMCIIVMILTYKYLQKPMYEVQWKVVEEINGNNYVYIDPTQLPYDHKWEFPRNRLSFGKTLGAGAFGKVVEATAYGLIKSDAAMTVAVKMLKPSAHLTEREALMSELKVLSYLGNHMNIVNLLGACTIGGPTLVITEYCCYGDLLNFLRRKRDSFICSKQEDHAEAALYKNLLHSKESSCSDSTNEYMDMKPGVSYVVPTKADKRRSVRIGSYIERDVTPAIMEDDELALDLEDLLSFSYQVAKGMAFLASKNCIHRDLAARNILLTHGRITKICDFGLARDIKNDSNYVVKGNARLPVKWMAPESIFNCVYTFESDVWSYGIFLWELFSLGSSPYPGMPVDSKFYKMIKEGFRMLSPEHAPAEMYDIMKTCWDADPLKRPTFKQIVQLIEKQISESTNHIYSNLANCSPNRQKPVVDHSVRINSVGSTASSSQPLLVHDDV", "details": "cited from earlier work"}, "Prox1^ΔVEC mice": {"system": "Prox1^ΔVEC mice", "details": "50 mg/kg body weight/day oral; for aortic peak velocity: 24 weeks from 1 month of age, echocardiography, vs untreated Prox1^ΔVEC mice; for aortic peak velocity / platelet aggregate-like (thrombus-like) structures in aortic valves / abnormal elastin expression/distribution in aortic valves / aortic valve thickness (progressive thickening) / versican expression in aortic valves: 50 mg/kg/day; for platelet aggregate-like (thrombus-like) structures in aortic valves / abnormal elastin expression/distribution in aortic valves / aortic valve thickness (progressive thickening) / versican expression in aortic valves: 24 weeks; for platelet aggregate-like (thrombus-like) structures in aortic valves: Movat Pentachrome-stained sections; for abnormal elastin expression/distribution in aortic valves: downstream side of aortic valves; for aortic valve thickness (progressive thickening): histology, area of valve leaflets; for versican expression in aortic valves: immunohistochemistry; for valve defects / progression of valve disease: mice lacking Prox1 (Prox1^ΔVEC)"}, "[1]": {"system": "patients with PDGFRβ hyperactivating mutations", "details": "cited from earlier work"}}, "note": "Entries after “also recorded” stand apart in the source; their conditions may differ. Like-named read-outs stand apart in the source and are kept apart here.", "data": [{"smiles": "Cc1ccc(NC(=O)c2ccc(CN3CCN(C)CC3)cc2)cc1Nc1nccc(-c2cccnc2)n1", "note": "[imatinib]", "values": [{"measurement": "inhibition of kinase activity", "setting": "PDGFRβ", "value": "inhibits the activity"}, {"measurement": "inhibition of kinase activity", "setting": "PDGFRα", "value": "inhibits the activity"}, {"measurement": "inhibition of kinase activity", "setting": "c-Kit", "value": "inhibits the activity"}, {"measurement": "elastin expression in mitral valves", "setting": "Prox1^ΔVEC mice; Prox1^ΔVEC mice, 6 months", "value": "significantly normalized"}, {"measurement": "expression of SOX9 in the aortic and mitral valves", "setting": "Prox1^ΔVEC mice; Prox1^ΔVEC mice, 6 months", "value": "normalized"}, {"measurement": "thickness of the mitral valves", "setting": "Prox1^ΔVEC mice; Prox1^ΔVEC mice, 6 months", "value": "did not reduce"}, {"measurement": "versican expression in mitral valves", "setting": "Prox1^ΔVEC mice; Prox1^ΔVEC mice, 6 months", "value": "significantly normalized"}, {"measurement": "aortic peak velocity", "setting": "Prox1^ΔVEC mice; Prox1^ΔVEC mice", "value": "preventing an increase in peak velocity"}, {"measurement": "aortic peak velocity", "setting": "Prox1^ΔVEC mice; Prox1^ΔVEC mice, listed as Imb", "value": "lowered aortic peak velocity"}, {"measurement": "platelet aggregate-like (thrombus-like) structures in aortic valves", "setting": "Prox1^ΔVEC mice; Prox1^ΔVEC mice", "value": "reduced by imatinib treatment"}, {"measurement": "platelet aggregate-like (thrombus-like) structures in aortic valves", "setting": "Prox1^ΔVEC mice; Prox1^ΔVEC mice, listed as Imb", "value": "reduced"}, {"measurement": "abnormal elastin expression/distribution in aortic valves", "setting": "Prox1^ΔVEC mice; Prox1^ΔVEC mice", "value": "significantly reduced"}, {"measurement": "abnormal elastin expression/distribution in aortic valves", "setting": "Prox1^ΔVEC mice; Prox1^ΔVEC mice, listed as Imb", "value": "rescued"}, {"measurement": "aortic valve thickness (progressive thickening)", "setting": "Prox1^ΔVEC mice; Prox1^ΔVEC mice", "value": "does not ameliorate the progressive thickening"}, {"measurement": "aortic valve thickness (progressive thickening)", "setting": "Prox1^ΔVEC mice; Prox1^ΔVEC mice, listed as Imb", "value": "not reduced"}, {"measurement": "versican expression in aortic valves", "setting": "Prox1^ΔVEC mice; Prox1^ΔVEC mice", "value": "reduced the expression of versican"}, {"measurement": "versican expression in aortic valves", "setting": "Prox1^ΔVEC mice; Prox1^ΔVEC mice, listed as Imb", "value": "inhibited"}, {"measurement": "valve defects / progression of valve disease", "setting": "Prox1^ΔVEC mice; 6 months", "value": "partially rescue the valve defects; also recorded: prevents the progression of valve disease"}, {"measurement": "valve defects / progression of valve disease", "setting": "Prox1^ΔVEC mice; 6 months, listed as Imatinib", "value": "Attenuates Aortic Valve Degeneration"}, {"measurement": "connective tissue disorders", "setting": "[1]", "value": "ameliorated"}]}]}
